What was measured:
[1] = tested on: Acute Liver Damage associated with Centrilobular Necrosis (carbon tetrachloride); assay: Protective effect on acute liver damage associated with centrilobular necrosis (carbon tetrachloride model); type: in vivo, mice (four-week-old male, dd strain); conditions: 250 mg/kg oral 6 h before CCl4, average of 5 to 6 mice; for p-GPT (plasma glutamic-pyruvic transaminase activity): 24 h after CCl4, values over 1,000 regarded as 1,000; for Liver Damage Index: 0 normal, 2 slightly recognized, 4 clearly observable damage, 6 heavy damage
From the text: Carbon tetrachloride (CCl4) administration induces centrilobular necrosis of the liver associated with loss of diphosphopyridine nucleotide, hepatic glycogen, coenzyme A and increase in neutral fat. Release of several enzymes from the hepatocytes, and increases of enzyme activities in the plasma are recognized as the result of the damage of the liver. A suitable means for evaluating the degree of damage induced by CCl4 or the degree of protection afforded by drugs is to study the plasma glutamic-pyruvic transaminase (p-GPT) activity.
Method: The test compounds were dissolved or suspended in olive oil and administered orally at the dose of 250 mg/kg to the mice (Four-week-old male mice-dd strain). After 6 hours, CCl4 was administered orally (0.05 ml/kg as olive oil solution). Animals were killed 24 hours after CCl4 administration, and the liver was grossly observed. The plasma was obtained by centrifugation. Activities of p-GPT were determined by the method of Reitman and Frankel and expressed in Karmen units.
Score for liver damage was as follows: […]
4 Clearly observable damage
Each figure indicates average of 5 to 6 mice. Values of p-GPT over 1,000 Karmen unit regarded as 1,000 for calculation of average for convenience.

[2] = Effect on glucose metabolism (blood sugar after glucose load); type: in vivo, mice; conditions: for Blood Sugar: 250 mg/kg oral 6 h before glucose 4.0 g/kg
Procedure: The test compounds dissolved in olive oil and administered orally at the dose of 250 mg/kg to the mice. After 6 hours, 4.0 g/kg of glucose was orally administered. The same amount of glucose was given to the control animals. 0.02 ml of blood was taken from caudal vein of the mice at 30, 60, 90 and 120 min. after glucose administration. Blood sugar was measured by the procedure of Somogyi-Nelson. Number of animals used was 5 to 6 mice for each treatment.

[3] = tested on: fatty liver (carbon tetrachloride); assay: Therapeutic effect on fatty liver (carbon tetrachloride model); type: in vivo, male rat (35 week-old, SD strain); conditions: for Degree of fatty liver (histopathological examination): 10 days, one symbol per animal
Procedure: Carbon tetrachloride also induces fatty liver, but the picture of disease differs from the case of ethionine-induced fatty liver. Carbon tetrachloride is generally considered to damage microsome and thereby to inhibit protein synthesis and induce fatty liver.
Carbon tetrachloride was subscutaneously administered to 35 week-old male rat (SD strain) for 4 days at the dose of 1 ml/kg. The treated animals were left for 3 days after the last administration to maximize the manifestation of fatty liver.
Administration of the compounds of this invention was commenced on the fourth day after the administration of carbon tetrachloride was completed. It was orally given everyday for 10 days at the dose of 50 or 250 mg/kg. On the 11th day, the animals were sacrificed. The therapeutic effect was evaluated by determining the content of lipid in the liver (triglyceride and total lipid) and examining the histopathological changes. Triglyceride and total lipid were determined colorimetrically by chromotropic acid method and Bragdon's oxidation method, respectively.
Indices for the histopathological change is as follows.

[4] = tested on: bile flow and biliary salt; assay: Cholagogic action: bile flow and excretion of biliary salt; type: in vivo, male rat (4 week-aged, SD-JCL strain); conditions: 200 mg/kg oral; for bile flow / excretion of biliary salt: before treatment = 100
Procedure: The male rat (4 week-aged, SD-JCL strain) was anesthetized with sodium pentobarbital (37.5 mg/kg, intraperitoneal injection). The abdominal cavity was opened through a midline incision. The common bile duct was catheterized with polyethylene tube o.d. 0.8 mm. The catheter was brought to the outside through the abdominal incision wound prior to closing. Bile was collected from the catheter continuously with time intervals of one hour. The quantity of bile produced in one hour was determined by weighing and that of biliary salt was determined by enzymatic method (Ikagaku Jikkenho Koza 1B, Biological Constituents II, edited by Tamio YAMAKAWA). The amount of biliary salts was represented as cholic acid equivalent.
In the representation of the results, the quantities of bile and biliary salts produced in one hour prior to the administration of drug were taken as 100. The compound of this invention was orally administered at the dose of 200 mg/kg. As reference anethol trithion was used.

[5] = 50 mg/kg oral everyday for 10 days
[6] = 250 mg/kg oral everyday for 10 days

SMILES | p-GPT (plasma glutamic-pyruvic transaminase activity) [1] | Liver Damage Index [1] | further results
CCSC(=O)C(C(=O)SCC)=C1SCCS1 [Compound 12] | 36 Karmen units | 1.0 | Blood Sugar (percent of 0 min value) ([2]; 0 min): 100%; Blood Sugar ([2]; 0 min): 141 ± 11.3 mg/dL; Blood Sugar ([2]; 30 min): 264 ± 21.5 mg/dL; Blood Sugar ([2]; 60 min): 225 ± 17.2 mg/dL; Blood Sugar ([2]; 90 min): 167 ± 15.6 mg/dL; Blood Sugar ([2]; 120 min): 142 ± 13.2 mg/dL; Blood Sugar (percent of 0 min value) ([2]; 30 min): 187%; Blood Sugar (percent of 0 min value) ([2]; 60 min): 160%; Blood Sugar (percent of 0 min value) ([2]; 90 min): 118%; Blood Sugar (percent of 0 min value) ([2]; 120 min): 100%
CCOCCOC(=O)C(C(=O)OC(C)C)=C1SCC[S+]1[O-] (stereo not shown) [Compound 36] | 210 Karmen units | 1.4 | 
CC(C)COC(=O)C(C(=O)OCC(C)C)=C1SCCS1 [Compound 6] | 26 Karmen units | 0.5 | Degree of fatty liver (histopathological examination) ([3]; 50 mg/kg oral): ± ± and ± ± + ±; Degree of fatty liver (histopathological examination) ([3]; 250 mg/kg oral): ± - - - ± ±
CCCCSC(=O)C(C(=O)SCCCC)=C1SCCS1 [Compound 14] | 241 Karmen units | 1.4 | 
CCOC(=O)C(C(=O)OC(C)C)=C1SCC[S+]1[O-] (stereo not shown) [Compound 35] | 152 Karmen units | 0.8 | 
CC(C)COC(=O)C(C(=O)OC(C)C)=C1SCCS1 [Compound 23] | 102 Karmen units | 1.0 | 
CC(C)(C)OC(=O)C(C(=O)OC(C)(C)C)=C1SCC[S+]1[O-] (stereo not shown) [Compound 33] | 212 Karmen units | 1.4 | 
CCOC(=O)C(C(=O)SC(C)C)=C1SCCS1 [Compound 27] | 18 Karmen units | 0.4 | 
CCCCOCCOC(=O)C(C(=O)OCCOCCCC)=C1SCCS1 [Compound 17] | 242 Karmen units | 3.0 | 
CC(C)CCOC(=O)C(C(=O)OCCC(C)C)=C1SCCS1 [Compound 10] | 350 Karmen units | 3.3 | 
CCCCCOC(=O)C(C(=O)OCCCCC)=C1SCCS1 [Compound 9] | 550 Karmen units | 3.2 | 
NC(=O)CCCCC1CCSS1 (stereo not shown) [Thioctic acid amide, thioctic acid amide, reference compound] | 763 Karmen units | 4.8 | 
CCOCCOC(=O)C(C(=O)OC(C)C)=C1SCCS1 [Compound 24] | 152 Karmen units | 1.2 | Blood Sugar (percent of 0 min value) ([2]; 0 min): 100%; Blood Sugar ([2]; 0 min): 135 ± 13.2 mg/dL; Blood Sugar ([2]; 30 min): 248 ± 20.2 mg/dL; Blood Sugar ([2]; 60 min): 214 ± 18.8 mg/dL; Blood Sugar ([2]; 90 min): 173 ± 24.4 mg/dL; Blood Sugar ([2]; 120 min): 140 ± 16.3 mg/dL; Blood Sugar (percent of 0 min value) ([2]; 30 min): 184%; Blood Sugar (percent of 0 min value) ([2]; 60 min): 158%; Blood Sugar (percent of 0 min value) ([2]; 90 min): 128%; Blood Sugar (percent of 0 min value) ([2]; 120 min): 104%
CCCCOC(=O)C(C(=O)OCCCC)=C1SCCS1 [Compound 5] | 322 Karmen units | 3.0 | 
COCCOC(=O)C(C(=O)OCCOC)=C1SCCS1 [Compound 15, di(methoxyethyl) 1,3-dithiolan-2-ylidene malonate] | 85 Karmen units | 1.5 | 
CC(C)SC(=O)C(C(=O)SC(C)C)=C1SCCS1 [Compound 13] | 105 Karmen units | 1.4 | Degree of fatty liver (histopathological examination) ([3]; 50 mg/kg oral): ± ± and ± ± ± + ±; Degree of fatty liver (histopathological examination) ([3]; 250 mg/kg oral): - ± and - ± ± ±
COC(=O)C(C(=O)OCC(C)C)=C1SCC[S+]1[O-] (stereo not shown) [Compound 34] | 102 Karmen units | 1.0 | 
COC(=O)C(C(=O)OC)=C1SCC[S+]1[O-] (stereo not shown) [Compound 29] | 222 Karmen units | 0.6 | 
CCCOC(=O)C(C(=O)OCCC)=C1SCCS1 [Compound 3, Di-n-propyl 1,3-dithiolan-2-ylidene malonate] | 26 Karmen units | 1.0 | 
CC(C)COC(=O)C(C(=O)OCC(C)C)=C1SCC[S+]1[O-] (stereo not shown) [Compound 32] | 180 Karmen units | 1.0 | Total lipid [3, 5]: 112.4 ± 12.3 mg/g-liver; Triglyceride [3, 5]: 48.3 ± 7.6 mg/g-liver; Total lipid [3, 6]: 77.2 ± 8.7 mg/g-liver; Triglyceride [3, 6]: 26.3 ± 4.2 mg/g-liver
COC(=O)C(C(=O)OC)=C1SCCS1 [Compound 1] | 200 Karmen units | 2.2 | 
CCOC(=O)C(C(=O)OC)=C1SCCS1 [Compound 18] | 240 Karmen units | 1.4 | 
CCOCCOC(=O)C(C(=O)OCCOCC)=C1SCCS1 [Compound 16] | 150 Karmen units | 1.0 | 
CCCCSC(=O)C(C(=O)OCC)=C1SCCS1 [Compound 28] | 31 Karmen units | 0.8 | 
COC(=O)C(C(=O)OC(C)C)=C1SCCS1 [Compound 19, Methyl isopropyl 1,3-dithiolan-2-ylidene malonate] | 89 Karmen units | 1.0 | 
CSC(=O)C(C(=O)SC)=C1SCCS1 [Compound 11] | 750 Karmen units | 2.5 | 
CCOCCOC(=O)C(C(=O)OCC)=C1SCCS1 [Compound 25] | 85 Karmen units | 1.0 | 
COC(=O)C(C(=O)OCC(C)C)=C1SCCS1 [Compound 20] | 62 Karmen units | 0.2 | bile flow ([4]; 1 hour after treatment): 113±4.3; excretion of biliary salt ([4]; 1 hour after treatment): 104±11; bile flow ([4]; 2 hours after treatment): 112±8.2; excretion of biliary salt ([4]; 2 hours after treatment): 119±13; bile flow ([4]; 3 hours after treatment): 106±6.3; excretion of biliary salt ([4]; 3 hours after treatment): 120±17; bile flow ([4]; 4 hours after treatment): 113±8.8; excretion of biliary salt ([4]; 4 hours after treatment): 113±18; bile flow ([4]; 5 hours after treatment): 93±3.8; excretion of biliary salt ([4]; 5 hours after treatment): 82±7.3; Amount of total biliary salts excreted for 5 hours relative to control ([4]; versus control): 1.55 times; Quantity of total excreted bile for 5 hours relative to control ([4]; versus control): 1.14 times
CCC(C)OC(=O)C(C(=O)OC(C)CC)=C1SCCS1 (stereo not shown) [Compound 7] | 102 Karmen units | 1.2 | 
CC(C)(C)OC(=O)C(C(=O)OC(C)(C)C)=C1SCCS1 [Compound 8] | 230 Karmen units | 1.2 | 

— US4080467A, “Pharmaceutical compositions comprising 1,3-dithiolan-2-ylidene malonate derivatives” (Nihon Nohyaku Co., Ltd., priority 1976, dated 1978)
